Drawing on patent US9540343B2 (Gilead Sciences, Inc., priority 2011, dated 2017), this text covers inhibition and CC50 for 23 compounds.

One data set has as its system HIV-IIIb. In words: Test A: Antiviral assay in MT4 cells. The conditions noted are these: Human immunodeficiency virus 1, IIIB, MT4, 120 h, read-out: % inhibition at 2 μM, percent inhibition of virus-induced cell killing, from dose response curve at 2 uM drug; MT-4 cells infected with HIV-IIIb, 5 days, CellTiter-Glo. Format: cell-based, HIV-1.
The next data set is described as follows: in vitro. The following applies: human, uninfected MT-4 cells, CC50 (nM), same protocol as Test A, CellTiter-Glo. The procedure, abridged:
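Cytoprotection read-out: CellTiter-Glo chemiluminescence after 5 days at 37 °C of HIV-IIIb-infected MT-4 cells (m.o.i. 0.003) with compound in 10-point 3-fold dilutions, quadruplicate, 10% FBS. Cytotoxicity (CC50) measured identically without virus.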

As to `N#Cc1nn(CC(=O)N[C@@H](Cc2cc(F)cc(F)c2)c2ncccc2-c2ccc(F)c(C(N)=O)c2)c2c1C1CC1C2` (stereo partly drawn) [Example 242D, 5-(2-((1S)-1-(2-(3-cyano-3b,4,4a,5-tetrahydro-1H-cyclopropa[3,4]cyclopenta[1,2-c]pyrazol-1-yl)acetamido)-2-(3,5-difluorophenyl)ethyl)pyridin-3-yl)-2-fluorobenzamide], the inhibition at 2 µM with HIV-IIIb came out at 97%. For the same compound, the CC50 at 5 days in “in vitro” amounted to 25500 nM.
The corresponding values for `NC(=O)c1cc(-c2cccnc2[C@H](Cc2cc(F)cc(F)c2)NC(=O)Cn2nc3c(c2C(F)F)C2CC2C3O)ccc1F` (stereo partly drawn) [Example 243, 5-(2-((1S)-1-(2-(3-(difluoromethyl)-5-hydroxy-3b,4,4a,5-tetrahydro-2H-cyclopropa[3,4]cyclopenta[1,2-c]pyrazol-2-yl)acetamido)-2-(3,5-difluorophenyl)ethyl)pyridin-3-yl)-2-fluorobenzamide] are 33% and > 53200 nM.
The corresponding values for `CC(C)(C)c1cc(C(F)(F)F)nn1CC(=O)N[C@@H](Cc1cc(F)cc(F)c1)c1ncccc1-c1ccc(F)c(C(N)=O)c1` [Example 244B, (S)-5-(2-(1-(2-(5-(tert-butyl)-3-(trifluoromethyl)-1H-pyrazol-1-yl)acetamido)-2-(3,5-difluorophenyl)ethyl)pyridin-3-yl)-2-fluorobenzamide] are 0% and 16400 nM.
As for `NC(=O)c1cccc(-c2cccnc2[C@H](Cc2cc(F)cc(Cl)c2)NC(=O)Cc2c[nH]c3ccc(O)cc23)c1` [Example 245F, (S)-3-(2-(2-(3-chloro-5-fluorophenyl)-1-(2-(5-hydroxy-1H-indol-3-yl)acetamido)ethyl)pyridin-3-yl)benzamide], the inhibition at 2 µM with HIV-IIIb was determined as 71%. Further, in “in vitro”, the half-maximal cytotoxic concentration (CC50) at 5 days amounted to 30300 nM.
Regarding `NC(=O)c1cc(-c2cccnc2[C@H](Cc2cc(F)cc(F)c2)NC(=O)CC2C(=O)Nc3cc(F)ccc32)ccc1F` (stereo partly drawn) [Example 246, 5-(2-((1S)-2-(3,5-difluorophenyl)-1-(2-(6-fluoro-2-oxoindolin-3-yl)acetamido)ethyl)pyridin-3-yl)-2-fluorobenzamide], the inhibition at 2 µM with HIV-IIIb was 1%. The 50% cytotoxic concentration (CC50) at 5 days in “in vitro” came to 47900 nM.
As for `CCOc1ccc(-c2cccnc2[C@H](Cc2cc(F)cc(F)c2)NC(=O)Cn2nc(C(F)F)c3c2C(F)(F)C2CC32)cc1` (stereo partly drawn) [Example 247, 2-(3-(difluoromethyl)-5,5-difluoro-3b,4,4a,5-tetrahydro-1H-cyclopropa[3,4]cyclopenta[1,2-c]pyrazol-1-yl)-N—((S)-2-(3,5-difluorophenyl)-1-(3-(4-ethoxyphenyl)pyridin-2-yl)ethyl)acetamide], in the data set with HIV-IIIb, the inhibition at 2 µM stood at 39%. Also, in “in vitro”, the 50% cytotoxic concentration (CC50) at 5 days was determined as 26300 nM.
On to `NC(=O)c1cc(-c2cccnc2[C@H](Cc2cc(F)cc(F)c2)NC(=O)Cn2nc(C(F)(F)F)c3c2CNC3)ccc1F` [Example 251, (S)-5-(2-(2-(3,5-difluorophenyl)-1-(2-(3-(trifluoromethyl)-5,6-dihydropyrrolo[3,4-c]pyrazol-1(4H)-yl)acetamido)ethyl)pyridin-3-yl)-2-fluorobenzamide], for which the inhibition at 2 µM in the data set on HIV-IIIb worked out at 1%. The 50% cytotoxic concentration (CC50) at 5 days in “in vitro” is > 53200 nM.
In the case of `CC(C)c1cc(C(F)(F)F)nn1CC(=O)N[C@@H](Cc1cc(F)cc(F)c1)c1ncccc1-c1ccc(F)c(C(N)=O)c1` [Example 252, (S)-5-(2-(2-(3,5-difluorophenyl)-1-(2-(5-isopropyl-3-(trifluoromethyl)-1H-pyrazol-1-yl)acetamido)ethyl)pyridin-3-yl)-2-fluorobenzamide], the inhibition at 2 µM with HIV-IIIb was 18%. Besides, in the data set “in vitro”, the CC50 at 5 days came out at 19200 nM.
The corresponding values for `NC(=O)c1cc(-c2cccnc2[C@H](Cc2cccc(F)c2)NC(=O)CC2C(=O)Nc3ccc(F)cc32)ccc1F` (stereo partly drawn) [Example 253, 2-fluoro-5-(2-((1S)-1-(2-(5-fluoro-2-oxoindolin-3-yl)acetamido)-2-(3-fluorophenyl)ethyl)pyridin-3-yl)benzamide] are 27% and > 53200 nM.
As to `N#Cc1nn(CC(=O)N[C@@H](Cc2cc(F)cc(F)c2)c2ncccc2-c2ccc(F)c(C(N)=O)c2)c2c1C1CC1C2(F)F` (stereo partly drawn) [Example 254, 5-(2-((1S)-1-(2-(3-cyano-5,5-difluoro-3b,4,4a,5-tetrahydro-1H-cyclopropa[3,4]cyclopenta[1,2-c]pyrazol-1-yl)acetamido)-2-(3,5-difluorophenyl)ethyl)pyridin-3-yl)-2-fluorobenzamide], in the data set with HIV-IIIb, the inhibition at 2 µM amounted to 91%. Besides, the CC50 at 5 days in “in vitro” was found to be 16600 nM.
With `Cc1ccc2c(c1)NC(=O)C2CC(=O)N[C@@H](Cc1cc(F)cc(F)c1)c1ncccc1-c1ccc(F)c(C(N)=O)c1` (stereo partly drawn) [Example 255, 5-(2-((1S)-2-(3,5-difluorophenyl)-1-(2-(6-methyl-2-oxoindolin-3-yl)acetamido)ethyl)pyridin-3-yl)-2-fluorobenzamide], the inhibition at 2 µM in the data set on HIV-IIIb was 1%. Also, the cytotoxic concentration (CC50) at 5 days in the data set “in vitro” was > 53200 nM.
The corresponding values for `COc1ccc2c(c1)NC(=O)C2CC(=O)N[C@@H](Cc1cc(F)cc(F)c1)c1ncccc1-c1ccc(F)c(C(N)=O)c1` (stereo partly drawn) [Example 256, 5-(2-((1S)-2-(3,5-difluorophenyl)-1-(2-(6-methoxy-2-oxoindolin-3-yl)acetamido)ethyl)pyridin-3-yl)-2-fluorobenzamide] are 15% and > 53200 nM.
For `NC(=O)c1cc(-c2cccnc2[C@H](Cc2cccc(F)c2)NC(=O)Cc2cc(=O)[nH]c3ccccc23)ccc1F` [Example 257, (S)-2-fluoro-5-(2-(2-(3-fluorophenyl)-1-(2-(2-oxo-1,2-dihydroquinolin-4-yl)acetamido)ethyl)pyridin-3-yl)benzamide], the inhibition at 2 µM with HIV-IIIb came out at 7%. Also, the 50% cytotoxic concentration (CC50) at 5 days in “in vitro” was > 53200 nM.
On the same counts, the results for `NC(=O)c1cc(-c2cccnc2[C@H](Cc2cc(F)cc(F)c2)NC(=O)Cn2nc(C(F)(F)F)c3c2COC3)ccc1F` [Example 258, (S)-5-(2-(2-(3,5-difluorophenyl)-1-(2-(3-(trifluoromethyl)-4,6-dihydro-1H-furo[3,4-c]pyrazol-1-yl)acetamido)ethyl)pyridin-3-yl)-2-fluorobenzamide] are 8% and > 53200 nM.
The corresponding values for `Cc1ccc(C)c2c1NC(=O)C2CC(=O)N[C@@H](Cc1cc(F)cc(F)c1)c1ncccc1-c1ccc(F)c(C(N)=O)c1` (stereo partly drawn) [Example 259, 5-(2-((1S)-2-(3,5-difluorophenyl)-1-(2-(4,7-dimethyl-2-oxoindolin-3-yl)acetamido)ethyl)pyridin-3-yl)-2-fluorobenzamide] are 2% and 47600 nM.
The corresponding values for `NC(=O)c1cc(-c2cccnc2[C@H](Cc2cc(F)cc(F)c2)NC(=O)Cn2nc(C(F)F)c3c2C(F)C2CC32)ccc1F` (stereo partly drawn) [Example 260, 5-(2-((1S)-1-(2-(3-(difluoromethyl)-5-fluoro-3b,4,4a,5-tetrahydro-1H-cyclopropa[3,4]cyclopenta[1,2-c]pyrazol-1-yl)acetamido)-2-(3,5-difluorophenyl)ethyl)pyridin-3-yl)-2-fluorobenzamide] are 54% and 28100 nM.
Take `NC(=O)c1cc(-c2cccnc2[C@H](Cc2cc(F)cc(F)c2)NC(=O)Cn2nc3c(c2C(F)(F)F)CSC3)ccc1F` [Example 261, (S)-5-(2-(2-(3,5-difluorophenyl)-1-(2-(3-(trifluoromethyl)-4,6-dihydro-2H-thieno[3,4-c]pyrazol-2-yl)acetamido)ethyl)pyridin-3-yl)-2-fluorobenzamide]: in the data set with HIV-IIIb, the inhibition at 2 µM is 6%. In addition, the 50% cytotoxic concentration (CC50) at 5 days in “in vitro” is 21200 nM.
On the same counts, the results for `Cc1cnc([C@H](Cc2cc(F)cc(F)c2)NC(=O)Cc2c[nH]c3ccc(O)cc23)c(-c2ccc(F)c(C(N)=O)c2)c1` [Example 262G, (S)-5-(2-(2-(3,5-difluorophenyl)-1-(2-(5-hydroxy-1H-indol-3-yl)acetamido)ethyl)-5-methylpyridin-3-yl)-2-fluorobenzamide] are 109% and > 51200 nM.
For `NC(=O)c1cc(-c2cccnc2[C@H](Cc2cc(F)cc(F)c2)NC(=O)Cn2nc(C(F)(F)F)c3c2CCS(=O)(=O)C3)ccc1F` [Example 263, (S)-5-(2-(2-(3,5-difluorophenyl)-1-(2-(5,5-dioxido-3-(trifluoromethyl)-6,7-dihydrothiopyrano[4,3-c]pyrazol-1(4H)-yl)acetamido)ethyl)pyridin-3-yl)-2-fluorobenzamide], the inhibition at 2 µM with HIV-IIIb is 17%. The CC50 at 5 days in the data set “in vitro” was > 53200 nM.
For `NC(=O)c1cc(-c2cccnc2[C@H](Cc2cccc(F)c2)NC(=O)CN2CC(=O)Nc3ccccc32)ccc1F` [Example 264, (S)-2-fluoro-5-(2-(2-(3-fluorophenyl)-1-(2-(3-oxo-3,4-dihydroquinoxalin-1(2H)-yl)acetamido)ethyl)pyridin-3-yl)benzamide], in the data set with HIV-IIIb, the inhibition at 2 µM amounted to 24%. The cytotoxic concentration (CC50) at 5 days in the data set “in vitro” was > 53200 nM.
The corresponding values for `NC(=O)c1cc(-c2cccnc2[C@H](Cc2cc(F)cc(F)c2)NC(=O)Cn2nc(C(F)(F)F)c3c2CC(O)C3)ccc1F` (stereo partly shown) [Example 265] are 74% and > 53200 nM.
`NC(=O)c1cccc(-c2cccnc2[C@H](Cc2cc(F)cc(F)c2)NC(=O)Cn2ccc3cnc(Cl)nc32)c1` [Example 266C, (S)-3-(2-(1-(2-(2-chloro-7H-pyrrolo[2,3-d]pyrimidin-7-yl)acetamido)-2-(3,5-difluorophenyl)ethyl)pyridin-3-yl)benzamide]: the inhibition at 2 µM with HIV-IIIb was found to be 0%. This compound returned a cytotoxic concentration (CC50) at 5 days in the data set “in vitro” of 51900 nM.
On the same counts, the results for `NC(=O)c1cc(-c2cccnc2[C@H](Cc2cc(F)cc(F)c2)NC(=O)CC2C(=O)Nc3ccc(F)cc32)ccc1F` (stereo partly drawn) [Example 267, 5-(2-((1S)-2-(3,5-difluorophenyl)-1-(2-(5-fluoro-2-oxoindolin-3-yl)acetamido)ethyl)pyridin-3-yl)-2-fluorobenzamide] are 5% and > 52900 nM.
